# Source: patent US6126909A, “Process and apparatus for the production of BI-212 and a use thereof” (Arch Development Corporation, priority 1999, dated 2000)
# What was measured:
# [1] = test system: Ehrlich-Lettre Ascites carcinoma cells; assay: In vitro irradiation survival (clonogenic), monolayer; assay type: cell-based; conditions: dose increment reducing survival to 37 percent
# Experimental: In vitro studies were carried out using three well known cell lines, the cells from which were exposed to radiation from: (1) an X-ray source; (2) P-32 chromic phosphate; and (3) Bi-212 chloride. The three cell lines that were used are V-79, which is a Chinese hamster lung fibroblast, Ehrlich-Lettre Ascites carcinoma (ATCC CCL 77), which is an ascites producing -tumor, and NIH:OVCAR-3 (ATCC HTB 161), which is a human ovarian adenocarcinoma. These well known cell lines are predictive of what happens in vivo. The cells were grown as monolayers and into spheroid formations and subsequently irradiated, as described herein. […]
# (§1) The cell lines were also irradiated using Bi-212. […] The filter was purged with 1 ml of distilled deionized water, and the radioactivity was assayed using a calibrated 3×3-in. […]
# (§2) Cells were exposed over a period of four hours. The dose (D) per microCurie was calculated and corrected for decay as follows: [formula] where V=volume in milliliters, and […]
# (§3) Following plating, survival measurements were taken for each of the irradiated cell samples. […] The plates were then stained with crystal violet and colonies greater than 50 cells were scored. The surviving fraction was then determined.
# (§4) Intrinsic radiosensitivity (Do) was calculated from the survival curves. […]
# [2] = test system: NIH:OVCAR-3 cells (spheroids); assay: In vitro irradiation survival, spheroids; assay type: cell-based, human; conditions: OVCAR-3 spheroids
# Experimental: In vitro studies were carried out using three well known cell lines, the cells from which were exposed to radiation from: (1) an X-ray source; (2) P-32 chromic phosphate; and (3) Bi-212 chloride. The three cell lines that were used are V-79, which is a Chinese hamster lung fibroblast, Ehrlich-Lettre Ascites carcinoma (ATCC CCL 77), which is an ascites producing -tumor, and NIH:OVCAR-3 (ATCC HTB 161), which is a human ovarian adenocarcinoma. These well known cell lines are predictive of what happens in vivo. The cells were grown as monolayers and into spheroid formations and subsequently irradiated, as described herein.
# The V-79 cells were maintained under exponential growth conditions in minimal essential medium (MEM) supplemented with 10 percent fetal bovine serum. The Ehrlich-Lettre Ascites carcinoma cells were maintained in 90 percent NCTC 109 supplemented with 10 percent fetal bovine serum. The NIH:OVCAR-3 cells were maintained in RPMI 1640 and 10 percent fetal bovine serum.
# To initiate the formation of the spheroids, cells at a concentration of about 500,000 cells per flask were seeded onto petri dishes base-cooked with 1 percent agar MEM without serum. After spheroids having a size of about 20 micrometers (μm) formed, the spheroids were transferred to spinner bottles and maintained for two to three weeks at a temperature of 37° C. in a CO2 incubator until they grew to 10 to 1000 μm. Prior to irradiation, the spheroids were sized and separated using a spheroid separation column.
# Cells from each of the cell lines were irradiated by subjecting the cells to X-ray radiation, P-32, and Bi-212. The X-ray source that was used is a General Electric 250 kvp Maxitron, 26 […] (mA) (HVL 1.5 mm Cu) operated at a dose rate of 1.11 Greys per minute (Gy/min). The cells, in both monolayer and spheroid form were exposed at room temperature and then immediately plated for survival.
# Cells in both monolayer and spheroid were exposed to P-32 chromic phosphate. The radiation dose to each sample was calculated as: […]
# After exposure, the cells were washed in phosphate-buffered saline (PBS) and immediately plated for survival.
# as §1, §2, §3, §4
smiles,measurement,setting,value
"[212Bi] [Bi-212, bismuth-212]",D0 (intrinsic radiosensitivity),[1],0.65 Gy
same,D0 (intrinsic radiosensitivity),[2]; dose to 37 percent survival,0.55 Gy
same,Relative biological effectiveness (RBE),[2]; relative to X-ray,2.81
